# Data: ChEMBL document CHEMBL1138031, “3D QSAR studies of N-4-arylacryloylpiperazin-1-yl-phenyl-oxazolidinones: a novel class of antibacterial agents” (2006)
# System: Staphylococcus aureus
# Assay: Antibacterial activity against Staphylococcus aureus ATCC 25923
# Format: functional
# Settings: for MIC: Staphylococcus aureus, ATCC 25923
MIC [µg/mL],Structure (SMILES),Log (1/C),log(1/C)
16,CC(=O)NC[C@H]1CN(c2ccc(N3CCN(C(=O)/C=C/c4ccc(O)c(O)c4)CC3)c(F)c2)C(=O)O1,1.4936,–
> 16,CC(=O)NC[C@H]1CN(c2ccc(N3CCN(C(=O)/C=C/c4ccc(OC(=O)C(C)(C)C)cc4)CC3)c(F)c2)C(=O)O1,1.5492,–
> 16,CC(=O)NC[C@H]1CN(c2ccc(N3CCN(C(=O)/C=C/c4ccc(F)c(F)c4)CC3)c(F)c2)C(=O)O1,1.4971,–
0.25,C/C(S)=N/C[C@H]1CN(c2ccc(N3CCN(C(=O)/C=C/c4ccccc4)CC3)c(F)c2)C(=O)O1,3.2857,–
8,CC(=O)NC[C@H]1CN(c2ccc(N3CCN(C(=O)/C=C/c4ccc(OS(C)(=O)=O)cc4)CC3)c(F)c2)C(=O)O1,1.8456,–
2,CC(=O)NC[C@H]1CN(c2ccc(N3CCN(C(=O)/C=C/c4ccncc4)CC3)c(F)c2)C(=O)O1,2.3688,–
2,CC(=O)NC[C@H]1CN(c2ccc(N3CCN(C(=O)/C=C/c4ccc[nH]4)CC3)c(F)c2)C(=O)O1,2.3575,–
2,CC(=O)NC[C@H]1CN(c2ccc(N3CCN(C(=O)/C=C/c4ccsc4)CC3)c(F)c2)C(=O)O1,2.3735,–
2,CC(=O)NC[C@H]1CN(c2ccc(N3CCN(C(=O)/C=C/c4ccco4)CC3)c(F)c2)C(=O)O1,2.3584,–
1,CC(=O)NC[C@H]1CN(c2ccc(N3CCN(C(=O)/C=C/c4cccs4)CC3)c(F)c2)C(=O)O1,2.6745,–
4,CC(=O)NC[C@H]1CN(c2ccc(N3CCN(C/C=C/c4ccco4)CC3)c(F)c2)C(=O)O1,2.0439,–
4,CC(=O)NC[C@H]1CN(c2ccc(N3CCN(C(=O)/C=C/c4ccc(C)o4)CC3)c(F)c2)C(=O)O1,2.0706,–
2,CC(=O)NC[C@H]1CN(c2ccc(N3CCN(C/C=C/c4ccc([N+](=O)[O-])o4)CC3)c(F)c2)C(=O)O1,2.387,–
1,NC(=S)NC[C@H]1CN(c2ccc(N3CCN(C(=O)/C=C/c4ccco4)CC3)c(F)c2)C(=O)O1,2.6754,–
8,CC(=O)NC[C@H]1CN(c2ccc(N3CCN(C(=O)/C=C/c4ccc(COC(C)=O)o4)CC3)c(F)c2)C(=O)O1,1.82,–
0.5,NC(=S)NC[C@H]1CN(c2ccc(N3CCN(C(=O)/C=C/c4cccs4)CC3)c(F)c2)C(=O)O1,2.9909,–
4,CC(=O)NC[C@H]1CN(c2ccc(N3CCN(C(=O)/C=C/c4ccc(CO)o4)CC3)c(F)c2)C(=O)O1,2.0851,–
4,NC(=S)NC[C@H]1CN(c2ccc(N3CCN(C(=O)/C=C/c4ccncc4)CC3)c(F)c2)C(=O)O1,2.0833,–
0.25,C/C(S)=N/C[C@H]1CN(c2ccc(N3CCN(C(=O)/C=C/c4cccs4)CC3)c(F)c2)C(=O)O1,3.2911,–

MIC [µg/mL],Structure (SMILES),Log (1/C),log(1/C)
0.25,C/C(S)=N/C[C@H]1CN(c2ccc(N3CCN(C(=O)/C=C/c4ccc([N+](=O)[O-])o4)CC3)c(F)c2)C(=O)O1,3.316,–
2,CC(=O)NC[C@H]1CN(c2ccc(N3CCN(C(=O)/C=C/c4ccoc4)CC3)c(F)c2)C(=O)O1,2.3584,–
2,CC(=O)NC[C@H]1CN(c2ccc(N3CCN(C(=O)/C=C/c4c[nH]c5ccccc45)CC3)c(F)c2)C(=O)O1,2.4028,–
1,NC(=S)NC[C@H]1CN(c2ccc(N3CCN(C(=O)/C=C/c4ccc(O)cc4)CC3)c(F)c2)C(=O)O1,2.6986,–
1,CC(=O)NC[C@H]1CN(c2ccc(N3CCN(C(=O)/C=C/c4cccnc4)CC3)c(F)c2)C(=O)O1,2.6698,–
> 16,CC(C)(C)C(=O)Oc1ccc(/C=C/C(=O)N2CCN(c3ccc(N4C[C@H](CNC(N)=S)OC4=O)cc3F)CC2)cc1,1.5621,–
2,CC(=O)NC[C@H]1CN(c2ccc(N3CCN(C(=O)/C=C/c4ccc(O)cc4)CC3)c(F)c2)C(=O)O1,2.3825,–
2,CC(=O)NC[C@H]1CN(c2ccc(N3CCN(C(=O)/C=C/c4cccc(O)c4)CC3)c(F)c2)C(=O)O1,2.3825,–
4,CC(=O)NC[C@H]1CN(c2ccc(N3CCN(C(=O)/C=C/c4ccccc4)CC3)c(F)c2)C(=O)O1,2.0669,–
> 16,CC(=O)NC[C@H]1CN(c2ccc(N3CCN(C(=O)/C=C/c4ccc(C(=O)O)o4)CC3)c(F)c2)C(=O)O1,1.4953,–
0.5,C/C(S)=N/C[C@H]1CN(c2ccc(N3CCN(C(=O)/C=C/c4ccncc4)CC3)c(F)c2)C(=O)O1,2.9855,–
4,CC(=O)NC[C@H]1CN(c2ccc(N3CCN(C(=O)/C=C/c4ccc(C=O)o4)CC3)c(F)c2)C(=O)O1,2.0833,–
0.5,C/C(S)=N/C[C@H]1CN(c2ccc(N3CCN(C(=O)/C=C/c4c[nH]c5ccccc45)CC3)c(F)c2)C(=O)O1,3.0184,–
0.25,NC(=S)NC[C@H]1CN(c2ccc(N3CCN(C(=O)/C=C/c4c[nH]c5ccccc45)CC3)c(F)c2)C(=O)O1,3.3318,–
0.5,C/C(S)=N/C[C@H]1CN(c2ccc(N3CCN(C(=O)/C=C/c4ccco4)CC3)c(F)c2)C(=O)O1,2.9755,–
1,NC(=S)NC[C@H]1CN(c2ccc(N3CCN(C(=O)/C=C/c4ccccc4)CC3)c(F)c2)C(=O)O1,2.6845,–
2,C/C(S)=N/C[C@H]1CN(c2ccc(N3CCN(C(=O)/C=C/c4ccc(O)cc4)CC3)c(F)c2)C(=O)O1,–,2.3967
4,CC(=O)NC[C@H]1CN(c2ccc(N3CCN(C(=O)CO)CC3)c(F)c2)C(=O)O1 [EPEREZOLID],1.9939,–

Structure (SMILES),MIC [µg/mL],Log (1/C),log(1/C)
CC(=O)NC[C@H]1CN(c2ccc(N3CCN(C(=O)/C=C/c4ccc([N+](=O)[O-])o4)CC3)c(F)c2)C(=O)O1,0.25,3.3024,–
CC(=O)NC[C@H]1CN(c2ccc(N3CCN(C(=O)/C=C/c4ccc([N+](=O)[O-])s4)CC3)c(F)c2)C(=O)O1,0.25,3.316,–
